Measured values taken from patent US9642922B2, “Caspase-triggered nano-aggregation probes and methods of use” (The Board of Trustees of the Leland Stanford Junior …, priority 2013, dated 2017).
Numbered stars: 1 amine (or outer) side, 2 acyl side, 3 side chain; on linkers, the order of the positions; unused ones are H or OH. Square brackets hold non-standard residues; d marks the D form. Peptide text beside a SMILES is read from it. * marks the point of attachment. DOTA = O=C(O)CN1CCN(CC(=O)O)CCN(CC(=O)*)CCN(CC(=O)O)CC1; X1 = O=C(C1CSC(c2nc3ccc(N[*:1])cc3s2)=N1)[*:2]; X2 = N#Cc1ccc2cc(OCCCN*)ccc2n1; SEt = CCS*

Columns and labels:
[1] = system: subcutaneous HeLa tumors; experiment: In vivo fluorescence imaging of DOX-treated HeLa tumor-bearing mice; parameters: species or system mouse
Experimental: C-SNAF or either of the control probes (5 nmol) was administered intravenously to tumor-bearing mice and whole animal fluorescence was longitudinally monitored using a Maestro fluorescence imager.
To establish tumors in 6-week-old female nu/nu mice, 2×10^6 HeLa cells suspended in 50 μL of a 50% v/v mixture of Matrigel in supplemented DMEM (10% FBS, 1% penstrep) were injected subcutaneously in the shoulders of the mouse. Tumors were grown until a single aspect was 0.7 to 0.9 cm (approximately 10-15 days), and then treatment consisting of 8 mg/kg DOX or saline was initiated. Treatments were administered intravenously once every 4 d for a total of three times. Total mouse body weight and tumor size (width and length by caliper) was measured every other day. Tumor volumes were calculated assuming ellipsoid shape with the formula (l×w^2)/2.
Two days following the final treatment, 5 nmol probe in saline was injected intravenously and fluorescence imaging began immediately on a Maestro hyperspectral fluorescent imaging system (PerkinElmer, Mass., USA) using a 635±25 nm excitation filter and a 675 nm long-pass emission filter, with images acquired from 670 to 900 nm. Tissue autofluorescence and Cy5.5 fluorescence were deconvolved, and tumor fluorescence intensity was quantified by region of interest measurement using Nuance v.3.0.1.2 software (Perkin Elmer, Mass., USA).

[2] = target: T1, legumain (Homo sapiens, UniProt Q99538); experiment: HPLC enzyme specificity assay of C-SNAF, legumain; type: biochemical; conditions: 25 μM probe, 0.735 μg/ml enzyme, pH 5.5
T1 construct: purchased R&D Systems; host or cells: mouse myeloma cell line
Experimental: (§1) The specificity of C-SNAF towards other representative cysteine proteases such as caspase-7, caspase-9, cathepsin B, and legumain was examined.
(§2) Caspase (human, recombinant from E. coli) assays were performed for caspase-3 (4.9×10^−3 U; 7.35×10^−4 mg, Sigma), −7 (18.3 U; 7.35×10^−4 mg, Calbiochem), and −9 (0.3 U; 7.35×10^−4 mg, Calbiochem). All caspase assays were conducted in caspase buffer with 50 mM HEPES, 100 mM NaCl, 1 mM EDTA, 10 mM TCEP, 10% glycerol, and 0.1% CHAPS at pH 7.4. Cathepsin B (human liver; 0.27 U; 7.35×10^−4 mg, Calbiochem) and Legumain (human, recombinant from mouse myeloma cell line; >250 pmol/min/μg; 7.35×10^−4 mg, R&D Systems) were conducted in reaction buffer with 50 mM sodium acetate, 50 mM NaCl, 0.5 mM EDTA and 10 mM TCEP at pH 5.5. C-SNAF was diluted in the respective enzyme reaction buffer (25 μM, 1 mL) and remained at room temperature for 10 min, to which was then added the respective enzymes. Reactions were performed at 37° C., and monitored by HPLC hourly. The percentage conversion of the reaction was calculated based on the percentage of peak area of C-SNAF-cycl in the HPLC trace at 675 nm UV detection, which indicated the efficacy of enzyme cleavage of C-SNAF.

[3] = target: T2, caspase-3 (Homo sapiens, UniProt P42574); experiment: HPLC assay of caspase-3-triggered macrocyclization of C-SNAF; type: biochemical; parameters: purchased Sigma; host or cells: E. coli; conditions: probe 25 μM, caspase-3, 6 h
T2 sequence (P42574 29-175 limits assumed): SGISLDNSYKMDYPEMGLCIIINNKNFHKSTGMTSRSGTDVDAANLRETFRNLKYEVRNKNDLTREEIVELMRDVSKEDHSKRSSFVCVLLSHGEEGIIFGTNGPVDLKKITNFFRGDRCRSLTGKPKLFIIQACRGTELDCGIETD
T2 sequence (P42574 176-277 limits assumed): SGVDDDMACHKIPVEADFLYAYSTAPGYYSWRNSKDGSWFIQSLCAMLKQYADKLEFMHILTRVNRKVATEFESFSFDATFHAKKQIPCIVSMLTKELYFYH
Experimental: The progression of caspase-3-triggered macrocyclization of C-SNAF to form C-SNAF-cycl in solution was monitored using high-performance liquid chromatography (HPLC) following incubation of the probe (25 μM) with recombinant human caspase-3 (4.9×10^−[…]).
as §2

[4] = system: DOX-induced apoptotic HeLa cells; experiment: Flow cytometry of DOX-induced apoptotic HeLa cells labeled with probes; type: cell-based, human; conditions: 5 μM DOX, 2 μM probe, 24 h
Experimental: For the DOX-induced apoptotic cells, HeLa cells in 12-well plates were co-incubated with DOX (5 μM) and 2 μM C-SNAF, L-ctrl and D-ctrl, or 2 μM C-SNAF together with 50 μM Z-VAD-fmk for 24 h. After washing with PBS (1×) three times, the cells pellets were resuspended in 300 μL PBS, and applied for flow cytometry analysis using the Cy5.5 channels. The cell number for each flow cytometry analysis was approximately 5×10^3 to 10^4, and the data was processed using FlowJo software.

[5] = target: T3, caspase-9 (Homo sapiens, UniProt P55211); experiment: HPLC enzyme specificity assay of C-SNAF, caspase-9; type: biochemical; conditions: 25 μM probe, 0.735 μg/ml enzyme
T3 construct: purchased Calbiochem; host or cells: E. coli
Experimental: as §1, §2

[6] = target: T2, caspase-3; experiment: HPLC assay of caspase-3-triggered cyclization of MRI probe 15; type: biochemical; parameters: purchased Sigma; host or cells: E. coli; conditions: 200 μM probe, caspase-3 50 nM, 5 h
Experimental: The progression of caspase-3-triggered intramolecular cyclization of probe 15 in solution was investigated by incubation (200 μM) with recombinant human caspase-3 (50 nM) using high-performance liquid chromatography (HPLC). […] More than 90% of probe 15 and its disulfide bond reduced intermediates could be converted after 5 h (FIG. 27B).

[7] = target: T3, caspase-9; experiment: T1 measurement of probe 15 with caspase-9; type: biochemical; conditions: probe 208 μM, protease 50 nM, 1 T
Experimental: The enzyme specificity of probe 15 was studied by measuring the T1 value resulting from probe incubation (208 μM) with any of five relevant subcellular proteases (caspase-3, -7, -9, cathepsin B and legumain) in enzyme buffer. […] The reduced T1 value in solution was inhibited by the caspase inhibitor Z-VAD-fmk (50 μM).
Caspase (human, recombinant from E. coli) assays were performed for caspase-3 (4.9×10^−3 U; 7.35×10^−4 mg, Sigma), −7 (18.3 U; 7.35×10^−4 mg, Calbiochem), and −9 (0.3 U; 7.35×10^−4 mg, Calbiochem). All caspase assays were conducted in caspase buffer with 50 mM HEPES, 100 mM NaCl, 1 mM EDTA, 10 mM TCEP, 10% glycerol, and 0.1% CHAPS at pH 7.4.

T3 sequence (P55211 1-315 limits assumed): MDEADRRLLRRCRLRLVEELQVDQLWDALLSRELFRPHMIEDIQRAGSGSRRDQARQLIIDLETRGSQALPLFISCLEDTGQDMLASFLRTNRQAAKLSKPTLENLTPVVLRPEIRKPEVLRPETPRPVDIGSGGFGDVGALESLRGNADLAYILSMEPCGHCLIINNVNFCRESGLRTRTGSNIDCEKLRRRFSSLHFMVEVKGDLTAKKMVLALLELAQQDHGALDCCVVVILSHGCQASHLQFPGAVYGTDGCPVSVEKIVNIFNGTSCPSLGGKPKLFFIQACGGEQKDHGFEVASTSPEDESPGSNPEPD
T1 sequence (Q99538 18-323): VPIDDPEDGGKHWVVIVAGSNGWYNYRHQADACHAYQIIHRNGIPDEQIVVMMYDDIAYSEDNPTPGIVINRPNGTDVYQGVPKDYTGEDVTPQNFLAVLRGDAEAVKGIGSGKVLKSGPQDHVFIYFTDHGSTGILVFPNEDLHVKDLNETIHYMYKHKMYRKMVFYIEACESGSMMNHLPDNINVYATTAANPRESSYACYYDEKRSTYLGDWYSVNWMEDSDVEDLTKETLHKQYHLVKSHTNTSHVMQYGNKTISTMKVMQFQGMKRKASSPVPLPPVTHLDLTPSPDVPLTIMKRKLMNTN

Row | probe and disulfide-reduced intermediates converted to cyclized products [6] | T1 value after incubation with caspase-9 [7] | Compound | time of maximum tumor fluorescence after administration ([1]; 5 nmol i.v.) | correlation (r) of maximum tumor fluorescence with maximum tumor size change ([1]; 3×DOX-treated mice, 1 h after probe) | increase in fluorescence signal in DOX-treated tumors compared to saline-treated ([1]; 4 h after 5 nmol probe, 3×DOX) | activation by legumain [2] | conversion to C-SNAF-cycl after 6 h [3] | increase in Cy5.5 intensity of DOX-induced apoptotic cells compared to no probe or control probes [4] | activity of caspase-9 towards probe [5]
1 |  |  | CCSSC[C@@H](NC(=O)[C@H](CC(=O)O)NC(=O)[C@@H](NC(=O)[C@H](CCC(=O)O)NC(=O)[C@H](CC(=O)O)NC(C)=O)C(C)C)C(=O)N[C@@H](CCCCNC(=O)CCCCCN1C(=CC=CC=CC2=[N+](CC)c3ccc4c(S(=O)(=O)[O-])cc(S(=O)(=O)O)cc4c3C2(C)C)C(C)(C)c2c1ccc1c(S(=O)(=O)O)cc(S(=O)(=O)O)cc21)C(=O)Nc1ccc2nc(C3=N[C@@H](C(=O)NCCCOc4ccc5nc(C#N)ccc5c4)CS3)sc2c1 [C-SNAF] | 1 h | −0.9 | 1.6 fold | neither lysosomal cysteine proteases cathepsin B nor legumain could significantly activate | almost completely converted to C-SNAF-cycl | ~4 fold | essentially no activity
2 | More than 90% | No reduced T1 value | CCSSCC(NC(=O)C(CC(=O)O)NC(=O)C(NC(=O)C(CCC(=O)O)NC(=O)C(CC(=O)O)NC(C)=O)C(C)C)C(=O)NC(CCCCNC(=O)CN1CCN(CC(=O)[O-])CCN(CC(=O)[O-])CCN(CC(=O)[O-])CC1)C(=O)Nc1ccc2nc(C3=NC(C(=O)NCCCOc4ccc5nc(C#N)ccc5c4)CS3)sc2c1.[Gd+3] (stereo not drawn) [probe 15] (Ac-DEVDC(SEt)K(DOTA)[X1]-X2; configuration not given here) |  |  |  |  |  |  | 
